For one test, the target named is human sigma receptor (Homo sapiens, UniProt Q99720). In words: Human sigma receptor assay. The class given is binding. The protocol: (§1) The ability of test compounds to displace sigma ligands in vitro was determined by the methods of de Costa et al. (FEBS Lett. 251:53 (1989)) and De Haven-Hudkine et al. (Eur. J. Pharmacol. 227:372 (1992)) having guinea pig as a receptor source. Whereas, the methods of Gamapatju et al. (J. Pharm.&Exp. 289:251 (1999)) were utilized for human sigma receptors.
Sequence of human sigma receptor (Q99720 whole entry): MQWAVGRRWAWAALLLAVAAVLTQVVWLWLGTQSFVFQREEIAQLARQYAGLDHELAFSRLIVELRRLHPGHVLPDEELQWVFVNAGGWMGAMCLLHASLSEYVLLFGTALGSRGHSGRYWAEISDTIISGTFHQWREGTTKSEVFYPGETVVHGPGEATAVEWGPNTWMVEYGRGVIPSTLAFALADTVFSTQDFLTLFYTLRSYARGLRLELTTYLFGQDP

The target in test [1] is T1, sigma-1 receptor (guinea pig brain) (Cavia porcellus, UniProt Q60492).
T1 construct: from tissue; host or cells: guinea pig brain
T1 sequence (Q60492 whole entry): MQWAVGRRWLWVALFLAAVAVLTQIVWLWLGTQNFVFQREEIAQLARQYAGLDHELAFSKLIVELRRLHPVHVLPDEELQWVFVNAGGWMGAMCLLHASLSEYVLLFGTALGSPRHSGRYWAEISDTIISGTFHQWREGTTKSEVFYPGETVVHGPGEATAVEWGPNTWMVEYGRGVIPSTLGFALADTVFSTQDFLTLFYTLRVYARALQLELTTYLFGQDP
In words: Antagonism of haloperidol binding to guinea pig sigma-1 receptors. The following applies: sigma-1, guinea pig brain; for % Inhibition: test concentration not given.

In test [2] the target is T2, guinea pig sigma receptor (Cavia porcellus, UniProt Q60492).
T2 construct: having guinea pig as a receptor source; from tissue; host or cells: guinea pig
T2 sequence (Q60492 whole entry): as above
Description: Guinea pig sigma receptor assay. The class given is binding. The protocol: as §1

The subject of a further test is Male Wistar rats. Description: MK-801-Induced Psychosis Model. The class given is in vivo, rat. To be noted: rat, 0.25 mg/kg i.p.; MK-801 0.3 mg/kg i.p. From the text:
The non-competitive NMDA receptor antagonist MK-801 induces stereotypies and hyperactivity in rodents (1) by interacting with the NMDA receptor-associated ion channel. Phencyclidine, which also interferes with the NMDA receptor, produces psychotic effects in humans similar in many respects to schizophrenia. […] Therefore the MK-801-induced activity and stereotypies in rats may represent an appropriate animal model to test the potential efficacy of antipsychotic drugs.
Male Wistar rats (Iffa Crédo, St Germain/l'Arbresle, France), weight 250-300 g were housed 2 per cage on a 12 h/12 h light dark cycle (lights on at 7.00 a.m.) at a room temperature of 21±2° C. for a minimum of 5 days before testing. All animals had access to commercial food and tap water ad libitum.
On the day of the experiment, rats were treated with either reference drug vehicle, the reference drugs haloperidol or clozapine the test compound vehicle or test compounds. After administration, the rats were returned to their home cages for 15 minutes. […] The remaining rats treated with placebo received a second injection of vehicle. The standard injection volume was 2.0 ml/kg. After 10 minutes in the home cages, rats were transferred to the test box (Plexiglas, 29×12×12 cm), 5 minutes before the assessment for accomodation. The test box was cleaned with 70% ethanol before each assessment. Stereotypies, defined as wall-contacts with the snout, and locomotion, defined as turn-rounds of 180°, were assessed during 5 minute periods.

[3] abbreviates: read-out: IC50 Against Human Sigma Receptor.
Setting [4] is: read-out: IC50 Against Guinea Pig Sigma Receptor.

In general, IC50 refers to the concentration needed to halve the response being measured. Usually % Inhibition stands for the change of the read-out against control, counted positive when it falls. Lower therefore signals a weak effect.

Read-outs that look alike come from different tables or passages of the source.

For `NC1CCC2(CCN(Cc3ccc(F)cc3)CC2)Nc2ccccc21` (racemic) [Compound 36, 1′-(4-fluorobenzyl)-3,4-dihydrospiro[5H-1-benzazepine-2(1H)-4′-piperidin]-5-amine], on human sigma receptor (setting [3]), the IC50 was under 100 nM.

With `C=C(C)CCN1CCC2(CCC(=O)c3ccccc3N2)CC1` [Compound 23, 1′-(3-methyl-3-butene)-3,4-dihydrospiro[5H-1-benzazepine-2(1H)-4′-piperidin]-5-one], in test [1], the “% Inhibition” value is over 50%.

“1′-(iso-nicotinyl)-3,4-dihydrospiro[5H-1-benzazepine-2(1H)-4′-piperidin]-5-one [Compound 20]”: in test [1], the IC50 is over 1000 nM and the “% Inhibition” value was under 50%.

For `C=C1c2ccccc2NC12CCN(Cc1ccc(F)cc1)CC2` [Compound 53, 1-Fluorobenzyl-spiro[(3-methylene)-indole-2,4′-piperidine]], the half-inhibitory concentration (IC50) was over 1000 nM at human sigma receptor and under 100 nM in test [2].

As for `CC(c1ccc(F)cc1)N1CCC2(CCC(=O)c3ccccc3N2)CC1` (stereo not shown) [Compound 46, 1′-(1-Methyl-4-fluorobenzyl)-3,4-dihydrospiro[5H-1-benzazepine-2(1H)-4′-piperidin]-5-one], the values for the IC50 (on human sigma receptor (setting [3]); in test [2] (setting [4])) were under 100 nM and under 10 nM, respectively.

With `CC(C)CCN1CCC2(CCC(=O)c3ccccc3N2)CC1` [Compound 29, 1′-(3-methylbutane)-3,4-dihydrospiro[5H-1-benzazepine-2(1H)-4′-piperidin]-5-one], in test [1], the half-maximal inhibitory concentration (IC50) was under 100 nM and the “% Inhibition” value was over 50%.

Turning to `O=C1CCC2(CCN(CC3CO3)CC2)Nc2ccccc21` (stereo not shown) [Compound 28, 1′-(epoxymethyl)-3,4-dihydrospiro[5H-1-benzazepine-2(1H)-4′-piperidin]-5-one], the “% Inhibition” value in test [1] is given as over 50%.

Take `O=C1CCC2(CCN(C(=O)N3CCOCC3)CC2)Nc2ccccc21` [Compound 13, 1′-(4-morpholinecarbonyl)-3,4-dihydrospiro[5H-1-benzazepine-2(1H)-4′-piperidin]-5-one]: in test [1], the 50% inhibitory concentration (IC50) was over 1000 nM and the “% Inhibition” value is listed as under 50%.

In the case of `O=C1CCC2(CCN(S(=O)(=O)c3ccccc3)CC2)Nc2ccccc21` [Compound 17, 1′-(Benzenesulfonyl)-3,4-dihydrospiro[5H-1-benzazepine-2(1H)-4′-piperidin]-5-one], in test [1], the IC50 was over 1000 nM and the “% Inhibition” value is recorded as under 50%.

Regarding `N#Cc1ccc(CN2CCC3(CCC(=O)c4ccccc4N3)CC2)cc1` [Compound 24, 1′-(4-cyanobenzyl)-3,4-dihydrospiro[5H-1-benzazepine-2(1H), 4′-piperidin]-5-one], the “% Inhibition” value in test [1] was over 50%.

As to `C=CCN1CCC2(CCC(=O)c3ccccc3N2)CC1` [Compound 26, 1′-(allyl)-3,4-dihydrospiro[5H-1-benzazepine-2(1H)-4′-piperidin]-5-one], the “% Inhibition” value in test [1] is given as over 50%.

Turning to `CC(=O)N1CCC2(CCC(=O)c3ccccc3N2)CC1` [Compound 10, 1′-Acetyl-3,4-dihydrospiro[5H-1-benzazepine-2(1H), 4′-piperidin]-5-one], the “% Inhibition” value in test [1] is reported as over 50%.

On to `O=C(CCCN1CCC(O)(c2ccc(Cl)cc2)CC1)c1ccc(F)cc1` [haloperidol, reference compound], for which, in the test with Male Wistar rats, the MK-801-induced locomotion result was “significant reduction” and the MK-801-induced stereotypies entry was “significant reduction”.

On to `O=C1CCC2(CCN(C(=O)c3ccc4ccccc4c3)CC2)Nc2ccccc21` [Compound 16, 1′-(2-Naphthoyl)-3,4-dihydrospiro[5H-1-benzazepine-2(1H)-4′-piperidin]-5-one], for which, in test [1], the IC50 is over 1000 nM and the “% Inhibition” value is listed as under 50%.

`Fc1ccc(CN2CCC3(CCCc4ccccc4N3)CC2)cc1` [Compound 43]: the IC50 on human sigma receptor (setting [3]) was under 1000 nM.

Regarding `CC(C)(C)c1ccc(C(=O)N2CCC3(CCC(=O)c4ccccc4N3)CC2)cc1` [Compound 14, 1′-(4-tert-Butylbenzoyl)-3,4-dihydrospiro[5H-1-benzazepine-2(1H)-4′-piperidin]-5-one], in test [1], the IC50 is over 1000 nM and the “% Inhibition” value is under 50%.

On to `CCN(CC)C(=O)N1CCC2(CCC(=O)c3ccccc3N2)CC1` [Compound 15, 1′-(Diethylcarbamyl)-3,4-dihydrospiro[5H-1-benzazepine-2(1H)-4′-piperidin]-5-one], for which, in test [1], the 50% inhibitory concentration (IC50) was over 1000 nM and the “% Inhibition” value is recorded as under 50%.

Take `CC(=O)NC1CCC2(CCN(Cc3ccc(F)cc3)CC2)Nc2ccccc21` (racemic) [Compound 39]: the half-maximal inhibitory concentration (IC50) at human sigma receptor (setting [3]) is under 1000 nM; in test [2] (setting [4]), under 10 nM.

In the case of `O=C1CCC2(CCN(CC(O)c3ccccc3)CC2)Nc2ccccc21` (stereo not shown) [Compound 45, 1′-(2-hydroxy-phenethyl)-3,4-dihydrospiro[5H-1-benzazepine-2(1H)-4′-piperidin]-5-one], the half-inhibitory concentration (IC50) on human sigma receptor (setting [3]) was under 100 nM; in test [2] (setting [4]) it was under 10 nM.

For `O=C1CCC2(CCN(C(=O)c3ccc(Cl)c(Cl)c3)CC2)Nc2ccccc21` [Compound 12, 1′-(3,4-Dichlorobenzoyl)-3,4-dihydrospiro[5H-1-benzazepine-2(1H)-4′-piperidin]-5-one], in test [1], the IC50 was over 1000 nM and the “% Inhibition” value is listed as under 50%.

Turning to `O=C1C=CC2(CCN(Cc3ccc(F)cc3)CC2)Nc2ccccc21` [Compound 34, 1′-(4-Fluorobenzyl)-spiro[5-1-benzazepine-2(1H)-4′-piperidin]-5-one], in test [1], the IC50 is under 100 nM and the “% Inhibition” value was over 50%. Also, the half-maximal inhibitory concentration (IC50) in test [2] (setting [4]) is under 100 nM.

Regarding `O=C1CCC2(CCN(CCC3CCCCC3)CC2)Nc2ccccc21` [Compound 25], the “% Inhibition” value in test [1] is given as over 50%.

Turning to `COC(=O)c1ccc(CN2CCC3(CCC(=O)c4ccccc4N3)CC2)cc1` [Compound 22, 1′-(Methyl-(4-methylbenzoate))-3,4-dihydrospiro[5H-1-benzazepine-2(1H), 4′-piperidin]-5-one], in test [1], the half-maximal inhibitory concentration (IC50) is under 1000 nM and the “% Inhibition” value is recorded as over 50%.

For `O=C1CCC2(CCN(Cc3ncc[nH]3)CC2)Nc2ccccc21` [Compound 30, 1′-(2-methyl-imidazole)-3,4-dihydrospiro[5H-1-benzazepine-2(1H)-4′-piperidin]-5-one], in test [1], the concentration for half-maximal inhibition (IC50) was under 1000 nM and the “% Inhibition” value is given as over 50%.

In the case of `CC(C)(C)CCN1CCC2(CCC(=O)c3ccccc3N2)CC1` [Compound 27, 1′-(3,3-dimethylbutane)-3,4-dihydrospiro[5H-1-benzazepine-2(1H)-4′-piperidin]-5-one], the “% Inhibition” value in test [1] is over 50%.

On to `O=C1CCC2(CCN(Cc3ccc(OC(F)(F)F)cc3)CC2)Nc2ccccc21` [Compound 18, 1′-(4-Trifluoromethoxybenzyl)-3,4-dihydrospiro[5H-1-benzazepine-2(1H), 4′-piperidin]-5-one], for which the “% Inhibition” value in test [1] is over 50%.

The values are drawn from patent US6476019B1, “Spirocyclic ligands for sigma receptors, and libraries and methods of use thereof” (Sepracor Inc., priority 1999, dated 2002).
